We go through 71 compounds from PubChem BioAssay AID179 (DTP/NCI, 2004).

This experiment concerns CEM cells HIV-1 protection, formazan growth assay. The experiment is described as follows: NCI AIDS Antiviral Assay. The settings on record: for IC50: measured here: growth of uninfected CEM cells. In outline:
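Category rules: moderately active means at least 50% protection on retest, and confirmed active means 100% protection reproducibly. The underlying data came from a formazan growth assay in HIV-1-infected CEM cells.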

Several values for one entry are separate records, joined by “and”; a condition that tells them apart may be missing. Equal entries are not always repeated. Activity calls are given as the source filed them.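 The calls were made as follows: active = compounds giving half or more protection of infected cells from virus-caused growth loss, again on retest; inactive = the rest.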 Where a SMILES comes first, the peptide text is derived from it. Bridges are numbered along the chain shown (N, C = ends). Roman numbers before positions name the chains, in order. A value given as a limit tells only on which side of the number the result lay.

The EC50 is the concentration giving half of the maximal effect. A word on the IC50: it is the concentration that gives 50% inhibition. A higher IC50 goes with a need for much substance. For the compound `O=C(CC1(O)C(=O)Nc2c(Cl)ccc(Cl)c21)c1ccc(F)cc1` (stereo unspecified), the EC50 is more than 372 µM and the IC50 stood at 70.8 µM.
Turning to `CC(C)[Si](OCC1CC(C[C@H]2CC(C[C@H]3C[C@@H](CO[Si](C(C)C)(C(C)C)C(C)C)OC(C)(C)O3)OC(C)(C)O2)OC(C)(C)O1)(C(C)C)C(C)C` (stereo partly specified), the EC50 was more than 200 µM and the IC50 is more than 200 µM.
On to `Cc1ccc2c(c1C)C(=O)/C(=C/c1ccccc1C(=O)O)C2`, for which the EC50 was 38 µM and the IC50 turned out to be 93.3 µM.
Consider `COc1ccc(N2C(=O)/C(=C/c3ccc(N(CCC#N)CCC#N)cc3C)N=C2c2cc([N+](=O)[O-])ccc2Cl)cc1`, for which the EC50 was more than 12.6 µM and the IC50 was determined as 3.02 µM.
On the same counts, the results for `Cc1nc2ccc3c(ccc4nc(C)c(N=Nc5ccc(C(=N)N)cc5)c(O)c43)c2c(O)c1N=Nc1ccc(C(=N)N)cc1` are more than 200 µM and 11 µM.
On the same counts, the results for `C(=C/c1nc2ccccc2o1)/c1ccc2c(c1)OCO2` are more than 10.2 µM and more than 10.2 µM.
For the compound `O=C(NCCCNC(=O)c1ccc2cc(O)ccc2c1)c1ccc2cc(O)ccc2c1`, the result was inactive.
In the case of `COC(=O)c1nn(-c2ccc(Cl)cc2)c2nc3ccccc3c-2c1C(=O)OC`, the EC50 is more than 32.4 µM and the IC50 is more than 32.4 µM.
`CC(C)CCn1nc(N)c2nc3ccccc3nc21`: the EC50 was more than 200 µM and the IC50 came out at 112 µM.
In the case of `COC(=O)c1c(C)cc2c(c1O)C1(O)C(=O)c3cc4c(c(O)c3C(=O)C1(OC)C(O)C2)C(=O)C=C(NC1OC(C)C(OC)C(O)C1OC)C4=O` (stereo unspecified), the outcome was inactive.
In the case of `O=C(c1ccccc1[N+](=O)[O-])C(Br)C(Br)c1ccc(Cl)c(Cl)c1` (stereo unspecified), the EC50 is more than 20 µM and the IC50 is 1 µM.
With `O=C1OCC2C1C1c3ccccc3C(O)c3ccccc3C21` (stereo unspecified), the outcome was inactive.
Consider `Nc1c(C(=O)O)nnc2cc(Cl)ccc12`, for which the EC50 was more than 200 µM and the IC50 stood at 66.1 µM.
In the case of `COC(=O)CCCC1(CCCC(=O)OC)CCCCCCCCC(CCCC(=O)OC)(CCCC(=O)OC)C(=O)C1=O`, the EC50 is more than 200 µM and the IC50 was 35.5 µM.
`CCOc1ccccc1NC(=O)CC1C(=O)Nc2ccccc2S1=O` (stereo unspecified): the EC50 is more than 38 µM and the IC50 is more than 38 µM.
For `CC(C)(Oc1ccc2c(=O)cc(-c3ccc(Cl)cc3)oc2c1)C(=O)Nc1c(Cl)cccc1Cl`, the EC50 is more than 10.2 µM and the half-inhibitory concentration (IC50) is more than 10.2 µM.
As for `O=C1N[Se](=O)c2ccccc21` (stereo unspecified), the EC50 was 2.69 µM and the IC50 was 22.9 µM.
As to `CC(C)CC(NC(=O)C(N)CSSCC(N)C(=O)NC(CC(C)C)C(=O)O)C(=O)O` (stereo not drawn) (I: H-Cys-Leu-OH / II: H-Cys-Leu-OH; disulfide I:1-II:1; configuration not given here), the result was inactive.
Turning to `O=[N+]([O-])c1ccc(N2N=C(c3ccc4ccccc4c3O)CC2c2ccc(Cl)cc2Cl)c([N+](=O)[O-])c1` (stereo unspecified), the EC50 is more than 200 µM and the IC50 was 42.7 µM.
On the same counts, the results for `c1ccc(N=C2SC(=NNc3ccccc3)SC2=Nc2ccccc2)cc1` are more than 200 µM and more than 200 µM.
On the same counts, the results for `CN1CC=C(c2cccn2C)CC1` are more than 200 µM and 132 µM.
As to `CCOC(=O)CC1(c2cccc3ccccc23)OC(=O)c2ccccc21` (stereo unspecified), the outcome was inactive.
Still for that read-out and setting: with `CCOC(=O)Nn1c(C)cc(C(=O)OC)c1C` the entry was “inactive”; with `Cc1cc(O)cc2c1CC=C1C(=C2)C(=O)C(=O)C(C(C)C)=C1O`, “inactive”.
As to `c1ccc([P+](c2ccccc2)(c2ccccc2)C2c3ccccc3-c3ccccc32)cc1`, the EC50 is more than 200 µM and the IC50 came out at 10.7 µM.
On the same counts, the results for `CCOC(=O)/C(=C\c1ccc(N(C)C)cc1)P(=O)(OCC)OCC` are more than 513 µM and 55 µM.
On the same counts, the results for `CSC12c3cc(C)n(-c4ccccc4)c3CC(C)(C)CN1C(=O)C2Oc1ccccc1` (stereo unspecified) are more than 200 µM and 16.2 µM.
The matching figures for `O=CNc1ccc(S(=O)(=O)c2ccc([N+](=O)[O-])cc2)cc1`: more than 200 µM and 30.2 µM.
As for `CCOC(=O)C1=NN(c2ccccc2)C(=O)/C1=C\N1C(=O)/C(=C/c2cccc(OC)c2O)SC1=S`, the EC50 is more than 100 µM and the IC50 amounted to 53.7 µM.
Regarding `COc1ccc(CCCCl)c(C2=NCCc3cc(OC)c(OC)cc32)c1`, the EC50 was more than 200 µM and the IC50 worked out at 36.3 µM.
`N#Cc1[nH]c(=S)[nH]c1N`: the EC50 is more than 200 µM and the IC50 turned out to be 117 µM.
The matching figures for `N#C/C(=C\c1ccccc1)C(=O)c1ccccc1`: more than 95.5 µM and more than 95.5 µM.
On the same counts, the results for `COc1ccccc1-n1c(=O)n(C)c(=O)n1C(C)(C)C` are more than 200 µM and more than 200 µM.
`CC1(C)C2CC1C(/C=N\OCC(=O)O)=CC2=O` (stereo unspecified): the EC50 is more than 200 µM and the IC50 was more than 200 µM.
Turning to `CCOC(=O)c1ccc(N=C2C(=S)N(c3ccc(C(=O)OCC)cc3)C(=N)N2/N=C/c2ccccc2)cc1`, the EC50 was more than 200 µM and the IC50 worked out at 3.24 µM.
The matching figures for `CCCCC1(O)CC2CC1C(C)C2(C)C` (stereo unspecified): more than 200 µM and more than 200 µM.
As to `O=C(O)c1ccccc1SSC(=S)N1CCOCC1`, the EC50 was more than 0.02 µM and the IC50 was found to be 0.000759 µM.
For `C=C(O)c1ccccc1C#Cc1ccccc1C(=O)OC`, the EC50 is more than 200 µM and the IC50 is more than 100 µM.
For the compound `OCc1c(-c2cccc3ccccc23)sc(-c2cccc3ccccc23)c1CO`, the outcome was inactive.
For the compound `COc1ccc(C2C(Cl)C(=O)N2NC(=O)c2ccc(NC(C)=O)cc2)cc1` (stereo unspecified), the EC50 is more than 200 µM and the IC50 is more than 200 µM.
Regarding `CN1C(=O)C2C3C=C4c5ccccc5N(c5ccccc5)C4(C2C1=O)[C@H]1C(=O)N(C)C(=O)[C@@H]31` (stereo partly specified), the EC50 is more than 16.2 µM and the IC50 is more than 16.2 µM.
For the compound `CCC[CH2][Sn]1([CH2]CCC)[O]CC(CN(C)Cc2ccccc2)[O]1` (stereo unspecified), the EC50 was more than 20.9 µM and the concentration for half-maximal inhibition (IC50) is 0.138 µM.
On the same counts, the results for `O=C1CC2c3ccccc3CCC2c2ccccc21` (stereo unspecified) are more than 200 µM and 7.59 µM.
In the case of `Nc1nc(N)nc(NCCSSCCNc2nc(N)nc(N)n2)n1`, the EC50 was more than 200 µM and the IC50 is 97.7 µM.
The matching figures for `CCN(CC)CC(O)CN(CC(=O)Nc1c(C)cccc1C)CC(C)C` (stereo unspecified): more than 200 µM and more than 200 µM.
Take `O=C(NN1CCCCCC1)NS(=O)(=O)c1ccc(Cl)cc1`: the EC50 is more than 200 µM and the IC50 was more than 200 µM.
`COc1ccc(C2OC(c3ccncc3)=NN2C)cc1OC` (stereo unspecified): the EC50 was more than 200 µM and the IC50 came out at 87.1 µM.
`Nc1o[nH]c(=O)c1C1CCCCC1`: the EC50 was more than 200 µM and the IC50 is more than 200 µM.
As for `O=C(O)CNCc1c2ccccc2nc2ccccc12`, the outcome was inactive.
For the compound `CC(=O)Oc1cc2c(c(=O)n1C)C(C)N(C)C2=O` (stereo unspecified), the EC50 was 53.7 µM and the IC50 came out at 309 µM.
The matching figures for `CCC[CH2][Ge]([CH2]CCC)([CH2]CCC)[O]C(=O)C(OC(C)=O)c1ccccc1` (stereo unspecified): more than 151 µM and 4.27 µM.
Take `O=C1[C@@H]2C(c3ccccc3F)=NO[C@@H]2C(=O)N1c1ccc(Cc2ccc(N3C(=O)[C@H]4C(c5ccccc5F)=NO[C@H]4C3=O)cc2)cc1`: the EC50 is more than 8.32 µM and the IC50 was more than 8.32 µM.
Regarding `O=C(NCCCCN(CCCNC(=O)C(F)(F)F)Cc1ccccc1)C(F)(F)F`, the EC50 was more than 200 µM and the IC50 came to 97.7 µM.
On the same counts, the results for `CN(C(=O)c1ccco1)C(=S)N1CCN(c2ccccn2)CC1` are more than 398 µM and 209 µM.
Take `CN1C2CCC1CC(OC(=O)C1CCC(C(=O)OC3CC4CCC(C3)N4C)(c3ccccc3)c3ccccc31)C2` (stereo unspecified): the EC50 is more than 200 µM and the IC50 turned out to be 6.46 µM.
`Cc1ccc(CC2(OCCN(C)C)CCC(C(C)(C)C)CC2)cc1` (stereo unspecified): the EC50 is more than 200 µM; the IC50 is 3.16 µM and 2.95 µM.
In the case of `Cc1nc2ccccc2c(=O)n1N1C2CCCC21` (stereo unspecified), the EC50 was more than 200 µM and the IC50 is more than 200 µM.
As to `O=c1[nH]nc(Cl)c2c(O)c3ccccc3c(O)c12`, the EC50 was more than 67.6 µM and the IC50 came out at 32.4 µM.
On the same counts, the results for `Cc1cc2c(C)c(-c3ccccc3)c(=O)oc2c(C#N)c1C` are more than 200 µM and 170 µM.
In the case of `O=C(OCc1ccccc1)c1ccc(NCc2cc(O)ccc2O)cc1`, the outcome was inactive.
For the compound `CC(O)C(=O)[O][Pb]([CH3])([CH3])[CH3]` (stereo unspecified), the EC50 is more than 200 µM and the IC50 was more than 200 µM.
On to `Cc1cn(C2OC(CO[Si](C)(C)C(C)(C)C)C(N(C)O[Si](C)(C)C(C)(C)C)C2[Se]c2ccccc2)c(=O)[nH]c1=O` (stereo unspecified), for which the EC50 is more than 200 µM and the IC50 came to 8.32 µM.
The matching figures for `O=C1C(=C2SC(c3ccccc3)(c3ccccc3)c3ccccc32)C(=O)c2ccccc21`: more than 200 µM and more than 200 µM.
The matching figures for `CCCCCCCN(O)CC1OC(n2ccc(=O)[nH]c2=O)C(O)C1O` (stereo unspecified): more than 200 µM and 141 µM.
Consider `Cn1nnn2c(-c3ccccc3)nnc12`, for which the EC50 was more than 891 µM and the IC50 was more than 891 µM.
For the compound `O=[N+]([O-])c1cccc2nc3ccccc3c(NCCCN3CCCCC3)c12`, the EC50 was more than 2 µM and the IC50 was determined as 0.0126 µM.
The matching figures for `COc1ccc(/C=C2\C(=O)N(C(=O)c3ccc(NC(C)=O)cc3)N=C2C)cc1`: more than 19.1 µM and more than 19.1 µM.
Consider `COc1ccc(N2C(=O)C(=O)C3(CCCCC3)C2=O)c2ccccc12`, for which the EC50 was more than 200 µM and the IC50 is more than 200 µM.
For the compound `CC(=N)OC1CC2CCC1(C)C2(C)C` (stereo unspecified), the EC50 was more than 200 µM and the half-inhibitory concentration (IC50) is more than 200 µM.
Consider `Cc1cccc2c3c(ccc12)C(=O)OC3=O`, for which the outcome was inactive.
With `C[C@H]1S[C@H](c2c(F)cccc2F)n2c1nc1ccccc12`, the EC50 is more than 200 µM and the IC50 came to 33.9 µM.
